Results taken from ChEMBL document CHEMBL1129689, “Unsaturated side chain beta-11-hydroxyhexahydrocannabinol analogs” (J Med Chem, 1996).

Key:
Cannabinoid receptor 2 = Cannabinoid receptor 2 (Mus musculus, UniProt P47936); experiment: Compound was evaluated for its ability to displace specifically bound [3H]CP-55940 from a Cannabinoid receptor 2 enriched mouse spleen preparation.; assay type: tissue-based
Cannabinoid receptor 1 = Cannabinoid receptor 1 (Rattus norvegicus, UniProt P20272); experiment: Compound was evaluated for its ability to displace specifically bound [3H]CP-55940 from a Cannabinoid receptor 1 enriched rat brain microsome preparation.
Sequence of Cannabinoid receptor 1 (P20272 whole entry): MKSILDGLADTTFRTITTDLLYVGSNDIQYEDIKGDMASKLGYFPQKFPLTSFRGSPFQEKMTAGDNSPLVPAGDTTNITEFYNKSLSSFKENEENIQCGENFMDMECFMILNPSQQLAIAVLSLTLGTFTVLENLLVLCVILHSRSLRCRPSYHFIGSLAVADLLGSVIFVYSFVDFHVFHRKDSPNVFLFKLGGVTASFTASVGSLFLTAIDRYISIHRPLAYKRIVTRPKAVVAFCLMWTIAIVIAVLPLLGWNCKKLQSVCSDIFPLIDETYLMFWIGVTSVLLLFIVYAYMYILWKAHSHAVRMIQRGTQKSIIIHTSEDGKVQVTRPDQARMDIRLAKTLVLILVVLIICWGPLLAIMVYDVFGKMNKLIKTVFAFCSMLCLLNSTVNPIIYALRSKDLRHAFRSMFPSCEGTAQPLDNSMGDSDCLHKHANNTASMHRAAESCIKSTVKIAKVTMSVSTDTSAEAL

Sequence of Cannabinoid receptor 2 (P47936 whole entry): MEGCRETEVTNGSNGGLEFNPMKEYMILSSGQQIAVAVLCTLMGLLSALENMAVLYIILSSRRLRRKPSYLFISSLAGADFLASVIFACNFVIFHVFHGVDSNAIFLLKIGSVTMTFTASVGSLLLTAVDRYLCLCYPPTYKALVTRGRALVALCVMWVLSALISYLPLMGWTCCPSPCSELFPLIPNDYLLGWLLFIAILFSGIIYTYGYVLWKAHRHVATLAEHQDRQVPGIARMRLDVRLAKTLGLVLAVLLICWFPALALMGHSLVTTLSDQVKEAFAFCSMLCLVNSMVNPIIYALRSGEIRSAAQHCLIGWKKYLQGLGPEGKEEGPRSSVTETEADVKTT

| Compound | Ki (Cannabinoid receptor 2) [nM] | Ki (Cannabinoid receptor 1) [nM] |
| --- | --- | --- |
| CCCCC/C=C/c1cc(O)c2c(c1)OC(C)(C)[C@@H]1CC[C@@H](CO)C[C@@H]21 | 5.3 | 1.2 |
| CCCCC/C=C\c1cc(O)c2c(c1)OC(C)(C)[C@@H]1CC[C@@H](CO)C[C@@H]21 | 9.5 | 0.8 |
| CCCCCC#Cc1cc(O)c2c(c1)OC(C)(C)[C@@H]1CC[C@@H](CO)C[C@@H]21 | 61.6 | 5.8 |
| CCCCCCCc1cc(O)c2c(c1)OC(C)(C)[C@@H]1CC[C@@H](CO)C[C@@H]21 | 14.3 |  |
